Test results from patent US5166348A, “Bornyl and isobornyl esters of carboxylic acids of condensed tetrahydroquinoxalines” (Uralsky politekhnichesky institut, priority 1989, dated 1992).

Tested on: influenza virus strains resistant to remantadine
Assay type: in vivo
Conditions: chick embryos, 1 mg/embryo

Structure (SMILES): CC1=C(C(=O)OC2CC3CCC2(C)C3(C)C)C2Nc3ccccc3N(C)C2O1 (stereo not shown) [compound 1a, isobornyl ester of 2,9-dimethyl-3a,4,9,9a-tetrahydrofuro [2,3-b] quinoxaline-3-carboxylic acid]
- sensitivity of strains resistant or only slightly sensitive to remantadine (in words): Some virus strains that are resistant or only slightly sensitive to remantadine were sensitive to the proposed compound 1a
